According to paper PMC6892276 (European Journal of Pharmaceutical Sciences, 2019):

Legend:
[1] = tested on: MOLM-13 (human FLT3-ITD positive AML); set-up: method as in Bavetsias et al., 2012; settings: ref Bavetsias et al., 2012; cited from earlier work
[2] = Protein binding in HLM (Rapid Equilibrium Dialysis); type: in vitro ADME; settings: human, liver microsomes, HLM 1 mg/ml, dialysis 4 h at 37 °C, read-out: fumic (fraction unbound in microsomes)
Procedure: Samples were removed, matrix matched and quenched with methanol containing internal standard; further processing is as described in Section 2.6.
The fraction unbound (fu) in HLM/rCYP was calculated using Eq. (5).(5) fu=1/1+1/PARreceiver/PARdonor−1 where PAR = Peak Area Ratio of analyte/internal standard.

[3] = CLint in mouse liver microsomes; type: in vitro ADME; settings: ICR/CD-1, liver microsomes, female, 1 mg/ml, NADPH
Procedure: (§1) All incubations of subcellular fractions and recombinant enzymes were conducted at 37 °C and 800 rpm using a Hamilton Microlab Star liquid handling workstation (Hamilton Robotics (Bonaduz, Switzerland)).
(§2) Prior to initiation of the reaction by the addition of NADPH (final concentration 1 mM), an aliquot was removed from each incubation and quenched in ice cold methanol containing internal standard (referred to as T0). NADPH was subsequently added to this solution for matrix matching. The remaining reaction (with addition of NADPH) was allowed to proceed for 60 min. At 0.5, 5, 15, 30 and 60 min aliquots were sampled and quenched as above. Incubations were conducted in singlicate; control incubations (substituting PBS for NADPH) were conducted simultaneously.
(§3) For the purpose of CLint determination, samples were analysed using an Agilent 1290 Infinity ultra high-performance liquid chromatography (UHPLC) system coupled to an Agilent 6520 Quadrupole Time-of-flight mass spectrometer (Agilent Technologies, Stockport, UK). […]
(§4) In vitro data (parent compound LC-MS response) was fitted to a non-linear single exponential model using the software GraphPad Prism (v6.07, GraphPad Software, Inc., La Jolla, USA) to determine the elimination rate constant (k). CLint in hepatocytes and liver microsomes was calculated using Eqs. […]

[4] = CLint in cryopreserved human hepatocyte suspensions; type: in vitro ADME; settings: both sexes, pH 7.4, mixed sex
Procedure: (§5) Cells were stored in the vapour phase of liquid nitrogen and thawed as per the supplier's instructions (rapid thawing at 37 °C, followed by centrifugation at 50 ×g for 5 min in thawing medium). Hepatocytes were re-suspended in a small volume of incubation medium (WME buffered with HEPES (final concentration 24 mM) adjusted to pH 7.4). Cell density was estimated using a haemocytometer and light microscope and viability determined according to the trypan blue exclusion method; cells were subsequently diluted to the required concentration in incubation medium. […]
as §3, §4

[5] = CLint in minipig liver microsomes; type: in vitro ADME; settings: Gottingen, 1 mg/ml, NADPH
Procedure: as §1, §2, §3, §4

[6] = tested on: CYP2C19; set-up: method as in Bavetsias et al., 2012; settings: ref Bavetsias et al., 2012; read-out: CYP2C19 inhibition IC50; cited from earlier work
[7] = CLint in dog liver microsomes; type: in vitro ADME; settings: Beagle, 1 mg/ml, NADPH
Procedure: as §1, §2, §3, §4

[8] = set-up: method as in Bavetsias et al., 2012; settings: rat; ref Bavetsias et al., 2012; cited from earlier work
[9] = tested on: CYP2D6; set-up: method as in Bavetsias et al., 2012; settings: ref Bavetsias et al., 2012; read-out: CYP2D6 inhibition IC50; cited from earlier work
[10] = set-up: method as in Bavetsias et al., 2012; settings: mouse and rat; ref Bavetsias et al., 2012; cited from earlier work
[11] = tested on: MV4-11 xenograft; set-up: method as in Bavetsias et al., 2012; settings: MV4-11 xenograft mouse model; ref Bavetsias et al., 2012; cited from earlier work
[12] = CLint in rat liver microsomes; type: in vitro ADME; settings: Sprague Dawley, female, 1 mg/ml, NADPH
Procedure: as §1, §2, §3, §4

[13] = CLint in cryopreserved mouse hepatocyte suspensions; type: in vitro ADME; settings: ICR/CD-1, cryopreserved hepatocyte suspensions, pH 7.4, female
Procedure: as §5, §3, §4

[14] = tested on: Caco-2; set-up: method as in Bavetsias et al., 2012; settings: ref Bavetsias et al., 2012, cited from earlier work

Structure (SMILES): Cc1nn(C)cc1-c1nc2c(N3CCN(Cc4ccc(Cl)cc4)CC3)c(Cl)cnc2[nH]1 [CCT241736, 6-Chloro-7-(4-(4-chlorobenzyl)piperazin-1-yl)-2-(1,3-dimethyl-1Hpyrazol-4-yl)-3H-imidazo[4,5-b] pyridine]
- anti-proliferative activity [1]: anti-proliferative activity
- fraction unbound at 4 h, 1 μM [2]: 0.0018
- microsomal CLint at 1 μM [3]: 53 ± 4.1 µL/min/mg
- hepatocyte CLint at 1 μM [4]: < 1 µL/min/1e6 cells
- microsomal CLint at 1 μM ([5]; female): 5.1 ± 1.1 µL/min/mg
- microsomal CLint at 1 μM ([5]; male): 5.5 ± 0.9 µL/min/mg
- IC50 [6]: > 10 µM
- microsomal CLint at 1 μM ([7]; female): 9.5 ± 2.2 µL/min/mg
- microsomal CLint at 1 μM ([7]; male): 7.4 ± 1.4 µL/min/mg
- clearance [8]: 4.57 mL/min/kg
- oral bioavailability [10]: 79–100%
- inhibition of tumour growth [11]: strong inhibition of tumour growth
- microsomal CLint at 1 μM [12]: 2.7 ± 1.8 µL/min/mg
- hepatocyte CLint at 1 μM [13]: 91 µL/min/1e6 cells
- efflux ([14]; Caco-2): no evidence of efflux
- Caco-2 permeability [14]: 18.6 ×10⁻⁶ cm/s
